Measurements reported in patent publication US20070179084A1, “Process for reducing the concentration of blood glucose in a diabetic patient” (Nation Chiao Tung University, priority 2006, published 2007).

Assays:
C2C12 cells [1] = assay: Glucose absorption (2-deoxy-D-glucose uptake) by differentiated C2C12 myotubes, Amplex Red Glucose/Glucose Oxidase Assay Kit; type: cell-based, mouse; settings: for glucose absorption in contrast to C2C12 cells without stimulation (in words): 0.1 μM, 1 μM, 10 μM and 100 μM metal solution
Description: The cells are cultured and differentiate. […] Then, a half of the culture media are removed and replaced with fresh differentiation media (90% DMEM (Dulbecco's Modified Eagle's Medium) and 10% FBS (fetal bovine serum)). […] In normal physiological conditions, the myotube differentiates from the myoblast and aggregates to form muscle. Therefore, the myotube has a cell type most similar to muscle, so that the cell type of used cells is a myotube in the whole test experiment. The glucose extracted from the cells is determined. […] When starting the experiment, add the stimulating samples with suitable concentration to the culture media and incubate at 37° C. for 30 minutes (mins). […] Finally, incubate the cells on ice for 10 mins, to stop the reaction. Then, remove the culture media, and wash the cells three times with an ice-cold PBS solution. After washing, scrape the cells from the plate with ice-cold 65% EtOH and sonicate the cells. After spun in a centrifuge at 13000 rpm and 4° C. for 15 mins, transfer the supernatant to fresh the eppendorf tube and then spin the remainder in the centrifuge again to collect the supernatant again. The collected supernatants are mixed and dry the supernatant by vacuum centrifugation. After drying, the sample is acquired and assayed for […] levels using the Amplex Red Glucose/Glucose Oxidase Assay Kit.

C2C12 cells [2] = assay: Observation of change in cell type, floating and damage of C2C12 cells after stimulation
From the text: In FIG. 4, the columns with the same patterns represent the C2C12 cells stimulated by the same metal ion (or oxidized metal ion) solutions and the sign under the transverse axle indicates the concentration of the metal ion (or oxidized metal ion) solution, corresponding to each column.
In FIG. 8, the columns with the same patterns represent treatment with the same complex and the sign under the transverse axle indicates the concentration of the complex corresponding to each column.

[3] = 40 μg/ml complex, co-treated with 10 μM insulin, vs no stimulating sample
[4] = 40 mg/ml complex solution including 1 mM metal ion and the insulin
[5] = 0.1 μM metal solution, co-treatment with 1 μM insulin, vs no stimulating sample
[6] = 1 μM metal solution, co-treatment with 10 μM insulin, vs no stimulating sample
[7] = 10 μM metal solution, co-treatment with 6 pM insulin, vs no stimulating sample
[8] = 100 μM metal solution, 30 min, vs C2C12 cells without stimulation
[9] = 100 μM metal solution, co-treatment with 1 μM insulin, vs no stimulating sample
[10] = 1 mM metal solution and the insulin
[11] = 1 mM metal solution, no insulin
[12] = 40 mg/ml solution including 1 mM metal ion, no insulin
[13] = 10 μM metal solution, 30 min, vs C2C12 cells without stimulation

With “Cr-TF: complex of the transferrin and Cr^3+” the “fold increase in glucose absorption” value (C2C12 cells [1]; [3]) was 4.94 fold, the “fold increase in glucose absorption” value (C2C12 cells [1]; 80 μg/ml complex, vs no stimulating sample) was 4.03 fold and the “fold increase in glucose absorption” value (C2C12 cells [1]; [4]) was 5.0 fold.
In the case of “Co-TF: complex of the transferrin and Co^3+, from apo-transferrin and Co^3+ solution (3:1 mole ratio)”, the “fold increase in glucose absorption” value (C2C12 cells [1]; [3]) is reported as 7.01 fold, the “fold increase in glucose absorption” value (C2C12 cells [1]; 100 μg/ml complex, vs no stimulating sample) is reported as 4.97 fold and the “fold increase in glucose absorption” value (C2C12 cells [1]; [4]) is reported as 7.1 fold.
In the case of “VO-TF: complex of the transferrin and VO^2+”, the “fold increase in glucose absorption” value (C2C12 cells [1]; [3]) is reported as 6.07 fold, the “fold increase in glucose absorption” value (C2C12 cells [1]; 40 μg/ml complex, vs no stimulating sample) is reported as 4.43 fold and the “fold increase in glucose absorption” value (C2C12 cells [1]; [4]) is reported as 6.1 fold.
`[Co+3]` [Co^3+, cobalt (III) ion] was tested, and the “change of cell type / damage of C2C12 cells” value (C2C12 cells [2]; 100 μM metal solution with insulin co-treatment) was “the type of C2C12 cells changes and the C2C12 cells are damaged”, the “change of cell type / damage of C2C12 cells” value (C2C12 cells [2]; stimulation for 30 mins, 100 μM (high concentration) for metal solution) was “damaged at a certain level” and the “fold increase in glucose absorption” value (C2C12 cells [1]; [5]) was 7.73 fold. The “glucose absorption in contrast to C2C12 cells without stimulation (in words)” value (C2C12 cells [1]) was “enhanced”, the “fold increase in glucose absorption” value (C2C12 cells [1]; [6]) was 4.37 fold and the “fold increase in glucose absorption” value (C2C12 cells [1]; [7]) was 3.95 fold. The “fold increase in glucose absorption” value (C2C12 cells [1]; [8]) was 3.14 fold, the “fold increase in glucose absorption” value (C2C12 cells [1]; [9]) was 8.5 fold and the “fold increase in glucose absorption” value (C2C12 cells [1]; [10]) was 4.4 fold. For the same molecule, the “fold increase in glucose absorption” value (C2C12 cells [1]; [11]) was 2.5 fold and the “fold increase in glucose absorption” value (C2C12 cells [1]; [12]) was 3.0 fold.
With `[Cr+3]` [Cr^3+, chromium (III) ion] the “fold increase in glucose absorption” value (C2C12 cells [1]; [5]) was 4.84 fold, the “glucose absorption in contrast to C2C12 cells without stimulation (in words)” value (C2C12 cells [1]) was “enhanced” and the “fold increase in glucose absorption” value (C2C12 cells [1]; 1 μM metal solution, co-treatment with 1 μM insulin, vs no stimulating sample) was 3.71 fold. For the same molecule, the “fold increase in glucose absorption” value (C2C12 cells [1]; [13]) was 2.21 fold, the “fold increase in glucose absorption” value (C2C12 cells [1]; [7]) was 2.36 fold and the “fold increase in glucose absorption” value (C2C12 cells [1]; [8]) was 2.41 fold. The “fold increase in glucose absorption” value (C2C12 cells [1]; [9]) was 3.74 fold, the “fold increase in glucose absorption” value (C2C12 cells [1]; [10]) was 1.3 fold and the “fold increase in glucose absorption” value (C2C12 cells [1]; [11]) was 1.6 fold. For the same molecule, the “fold increase in glucose absorption” value (C2C12 cells [1]; [12]) was 3.9 fold.
`[O]=[V+2]` [VO^2+, vanadyl] was tested, and the “fold increase in glucose absorption” value (C2C12 cells [1]; 0.1 μM metal solution, co-treatment with 0.1 μM insulin, vs no stimulating sample) was 2.62 fold, the “glucose absorption in contrast to C2C12 cells without stimulation (in words)” value (C2C12 cells [1]) was “enhanced” and the “fold increase in glucose absorption” value (C2C12 cells [1]; [6]) was 2.7 fold. The “fold increase in glucose absorption” value (C2C12 cells [1]; [13]) was 2.61 fold, the “fold increase in glucose absorption” value (C2C12 cells [1]; 10 μM metal solution, co-treatment with 10 μM insulin, vs no stimulating sample) was 6.21 fold and the “fold increase in glucose absorption” value (C2C12 cells [1]; [8]) was 2.38 fold. The “fold increase in glucose absorption” value (C2C12 cells [1]; [9]) was 3.4 fold, the “fold increase in glucose absorption” value (C2C12 cells [1]; [10]) was 2.7 fold and the “fold increase in glucose absorption” value (C2C12 cells [1]; [11]) was 1.9 fold. The “fold increase in glucose absorption” value (C2C12 cells [1]; [12]) was 4.4 fold.
